[ ]: non-standard residue; d: D form. Aib = CC(C)(N)C(=O)O
What was measured:
[1] = Circular dichroism secondary structure analysis; type: physicochemical; conditions: CD
Procedure: Secondary structure analyses of Djeya1 peptides were performed on a Jasco J-815 CD spectrometer (Jasco Ltd., Heckmondwike, UK). Peptides (0.01 mg mL^−^1) were dissolved in either 1 × phosphate buffered saline (PBS) at pH 7.4 or in a 2,2,2-tetrafluoroethanol (TFE) and 1 × PBS mixture (50.0% v/v). All buffers were prepared using ultra-pure water (resistivity 18 MΩ cm), PBS and TFE (Scientific Laboratory Supplies Ltd., Nottingham, UK). CD experiments were also performed at peptide:lipid ratios of 1:100, whilst 1,2-dimyristoyl-sn-glycero-3-phosphatidylcholine (DMPC) and 1,2-dimyristoyl-sn-glycero-3-phosphatidylserine (DMPS) (5 mg mL^−^1) (Avanti Polar Lipids, Alabaster, AL, USA) were dissolved separately in chloroform (HPLC grade, VWR International Ltd Lutterworth, UK) and dried under N2 gas. The lipid film was rehydrated using 1 × PBS, pH 7.5 for 1 h or until the solution was no longer turbid. The solution then underwent 5 cycles of freeze thaw before the lipid/peptide samples were prepared by the addition of peptide stock solution (final concentration 0.01 mg mL^−^1). Far UV CD spectra (180 nm to 260 nm) were recorded at 20 °C using 0.5 nm intervals, a bandwidth of 1 nm, a scan speed of 50 nm min^−1 and a 10 mm path-length cell. Ten accumulations were selected to average a single spectrum. Samples without peptide were prepared for background spectral subtraction. Data, baseline-subtracted and averaged CD, were analyzed using the Dichroweb server CDSSTR and SELCON3 reference dataset 3 [23, 24, 25]. To generate percentage structure averages, these analyses were repeated four times.

[2] = test system: decapitated S. mediterranea; assay: Anterior pole regeneration and eye development assay; type: in vivo, Schmidtea mediterranea
Procedure: Adult planaria, 4–6 mm in length, and selected for experimentation were starved 5 days prior to amputation. Transverse amputation of planarian heads, post-auricle and pre-pharynx, induced blastema formation in the trunk section, leading to eye regeneration and head remodeling.
Post amputation, planaria were immediately treated with exogenously added Djeya1 analogues in 35 mm diameter × 10 mm depth culture dishes (VWR International Ltd., Lutterworth, UK) to a final volume of 4 mL PAM and maintained at 20 °C. PAM, containing Djeya1 analogues, was replenished 4 days post amputation. […]

U373MG cells = assay: Quantitative peptide uptake, U373MG; type: cell-based; conditions: TAMRA-labelled peptides 1, 2.5, 5 μM, 1 h, 37 °C, lysate fluorescence 544/590 nm, two experiments in triplicate
Procedure: (§1) U373MG and U251 cells were maintained as above and then transferred to 6-well plates and grown to 80% confluence. Cells were washed and maintained in phenol red-free DMEM and subsequently treated with TAMRA-conjugated Djeya1 analogues at final concentrations of 1 μM, 2.5 μM, and 5 μM for 1 h in culture conditions as above. Cells were washed four times, detached with 300 μL of 1% (w/v) trypsin (without phenol red) at 37 °C, collected by centrifugation, and lysed in 300 μL 0.1 M NaOH for 2 h on ice. A total of 250 μL of each sample cell lysate was transferred to a black 96-well plate and analysed using a Thermo Fischer Scientific (Loughborough, UK) Fluoroskan Ascent FL fluorescence spectrophotometer (λAbs 544 nm/λEm 590 nm).

U251 cells = assay: Quantitative peptide uptake, U251; type: cell-based; conditions: 1 h, 37 °C
Procedure: as §1

[3] = 50% (v/v) TFE/PBS pH 7.4, peptide 0.01 mg mL-1, 20 °C
[4] = DMPC vesicles, lipid:peptide 100 to 1, PBS, peptide 0.01 mg mL-1, 20 °C
[5] = DMPS vesicles, lipid:peptide 100 to 1, PBS, peptide 0.01 mg mL-1, 20 °C
[6] = PBS pH 7.4, peptide 0.01 mg mL-1, 20 °C, Dichroweb, analyses repeated four times

H-RKLAFRYRRIKE[Aib]YNSYR-NH2 (SMILES CC[C@H](C)[C@H](NC(=O)[C@H](CCCNC(=N)N)NC(=O)[C@H](CCCNC(=N)N)NC(=O)[C@H](Cc1ccc(O)cc1)NC(=O)[C@H](CCCNC(=N)N)NC(=O)[C@H](Cc1ccccc1)NC(=O)[C@H](C)NC(=O)[C@H](CC(C)C)NC(=O)[C@H](CCCCN)NC(=O)[C@@H](N)CCCNC(=N)N)C(=O)N[C@@H](CCCCN)C(=O)N[C@@H](CCC(=O)O)C(=O)NC(C)(C)C(=O)N[C@@H](Cc1ccc(O)cc1)C(=O)N[C@@H](CC(N)=O)C(=O)N[C@@H](CO)C(=O)N[C@@H](Cc1ccc(O)cc1)C(=O)N[C@@H](CCCNC(=N)N)C(N)=O) [[Aib^13]Djeya1, Aib-substituted Djeya1 analogue, position 13; bioportide]
Unordered [1, 3]: 22.33 ± 1.50% | ß-Strand [1, 3]: 31.00 ± 2.08% | ß-Turns [1, 3]: 7.33 ± 0.05% | α-helix ([1]; 50% (v/v) TFE/PBS pH 7.4, peptide 0.01 mg mL-1, 20 °C, Dichroweb, analyses repeated four times): 40.00 ± 2.64% | effect of 50% TFE/PBS on α-helical structure ([1]; 50% TFE/PBS (v/v) compared with PBS): did not enhance | difference in percentage α-helicity in the presence of lipid membranes ([1]; DMPC and DMPS vesicles, lipid:peptide 100 to 1): No difference | Unordered [1, 4]: 22.00 ± 0.71% | ß-Strand [1, 4]: 30.00 ± 0.71% | ß-Turns [1, 4]: 8.00 ± 0.71% | α-helix [1, 4]: 42.00 ± 0.71% | Unordered [1, 5]: 21.00 ± 0.71% | ß-Strand [1, 5]: 30.00 ± 0.71% | ß-Turns [1, 5]: 7.00 ± 0.71% | α-helix [1, 5]: 42.00 ± 0.00% | α-helix ([1]; PBS pH 7.4, peptide 0.01 mg mL-1, 20 °C, Dichroweb CDSSTR/SELCON3, analyses repeated four times): 40.67 ± 1.52% | Unordered [1, 6]: 22.33 ± 1.52% | ß-Strand [1, 6]: 30.00 ± 1.00% | ß-Turns [1, 6]: 7.00 ± 0.00% | influence upon planarian head regeneration ([2]; 25 μM exogenous application to decapitated S. mediterranea, monitored over 8 days): delay head regeneration | response to light ([2]; 25 μM in PAM after amputation, re-treated day 4, day 8): unresponsive to light | regeneration of the anterior pole, including the eye spots ([2]; 25 μM in PAM immediately after transverse amputation, re-treated day 4, observed day 8, compared to PAM alone): absent | animals that remained unregenerated and in stasis ([2]; 25 μM treatment, 30 days post amputation, in PAM): 33% | animals that achieved full regeneration ([2]; 25 μM treatment, 30 days post amputation, in PAM, n = 9): 67% | animals that had commenced the development of photoreceptors within the unpigmented blastema ([2]; 25 μM, day 9 post amputation, n = 9): 67% | rank order of uptake efficacy (U373MG cells): [Aib^16]Djeya1 = [Aib^10]Djeya1 > [Aib^13]Djeya1 | uptake efficacy into U251 cells compared with U373MG cells (U251 cells; TAMRA-labelled peptide): increased uptake efficacy | rank order of uptake efficacy (U251 cells; U251, TAMRA-labelled peptides 1, 2.5, 5 μM, lysate fluorescence 544/590 nm, two experiments in triplicate): [Aib^13]Djeya1 > [Aib^16]Djeya1 > [Aib^10]Djeya1

Source: article PMC10458859, “Stem Cell Bioengineering with Bioportides: Inhibition of Planarian Head Regeneration with Peptide Mimetics of Eyes Absent Proteins” (Pharmaceutics, 2023)
